Source: patent publication US8129417B2, “Substituted octahydrocyclopenta[C]pyrrol-4-amines as calcium channel blockers” (Abbott Laboratories, priority 2008, dated 2012)

Target: human Cav2.2 (Homo sapiens, UniProt Q00975)
Assay: Assessment of calcium channel activity using FLIPR (Ca2+ influx in IMR32 cells)
Type: cell-based
Settings: for IC50: 2 μM nifedipine, depolarized with 80 mM KCl; for inhibition at 10 µM: IMR-32, @ 10 μM, 3 minute pre-incubation (*), read-out: percent inhibition
Outline: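 IC50 came from sigmoidal non-linear regression of percent inhibition, relative to uninhibited activity, across compound concentrations. Calcium influx was measured by FLIPR in IMR32 cells plated at 1-1.2×10^5 cells/well and cultured 48 h at 37 °C.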

[1] = 60 minute pre-incubation with compound
[2] = 3 minute pre-incubation with compound (*)

human Cav2.2, sequence (Q00975 whole entry): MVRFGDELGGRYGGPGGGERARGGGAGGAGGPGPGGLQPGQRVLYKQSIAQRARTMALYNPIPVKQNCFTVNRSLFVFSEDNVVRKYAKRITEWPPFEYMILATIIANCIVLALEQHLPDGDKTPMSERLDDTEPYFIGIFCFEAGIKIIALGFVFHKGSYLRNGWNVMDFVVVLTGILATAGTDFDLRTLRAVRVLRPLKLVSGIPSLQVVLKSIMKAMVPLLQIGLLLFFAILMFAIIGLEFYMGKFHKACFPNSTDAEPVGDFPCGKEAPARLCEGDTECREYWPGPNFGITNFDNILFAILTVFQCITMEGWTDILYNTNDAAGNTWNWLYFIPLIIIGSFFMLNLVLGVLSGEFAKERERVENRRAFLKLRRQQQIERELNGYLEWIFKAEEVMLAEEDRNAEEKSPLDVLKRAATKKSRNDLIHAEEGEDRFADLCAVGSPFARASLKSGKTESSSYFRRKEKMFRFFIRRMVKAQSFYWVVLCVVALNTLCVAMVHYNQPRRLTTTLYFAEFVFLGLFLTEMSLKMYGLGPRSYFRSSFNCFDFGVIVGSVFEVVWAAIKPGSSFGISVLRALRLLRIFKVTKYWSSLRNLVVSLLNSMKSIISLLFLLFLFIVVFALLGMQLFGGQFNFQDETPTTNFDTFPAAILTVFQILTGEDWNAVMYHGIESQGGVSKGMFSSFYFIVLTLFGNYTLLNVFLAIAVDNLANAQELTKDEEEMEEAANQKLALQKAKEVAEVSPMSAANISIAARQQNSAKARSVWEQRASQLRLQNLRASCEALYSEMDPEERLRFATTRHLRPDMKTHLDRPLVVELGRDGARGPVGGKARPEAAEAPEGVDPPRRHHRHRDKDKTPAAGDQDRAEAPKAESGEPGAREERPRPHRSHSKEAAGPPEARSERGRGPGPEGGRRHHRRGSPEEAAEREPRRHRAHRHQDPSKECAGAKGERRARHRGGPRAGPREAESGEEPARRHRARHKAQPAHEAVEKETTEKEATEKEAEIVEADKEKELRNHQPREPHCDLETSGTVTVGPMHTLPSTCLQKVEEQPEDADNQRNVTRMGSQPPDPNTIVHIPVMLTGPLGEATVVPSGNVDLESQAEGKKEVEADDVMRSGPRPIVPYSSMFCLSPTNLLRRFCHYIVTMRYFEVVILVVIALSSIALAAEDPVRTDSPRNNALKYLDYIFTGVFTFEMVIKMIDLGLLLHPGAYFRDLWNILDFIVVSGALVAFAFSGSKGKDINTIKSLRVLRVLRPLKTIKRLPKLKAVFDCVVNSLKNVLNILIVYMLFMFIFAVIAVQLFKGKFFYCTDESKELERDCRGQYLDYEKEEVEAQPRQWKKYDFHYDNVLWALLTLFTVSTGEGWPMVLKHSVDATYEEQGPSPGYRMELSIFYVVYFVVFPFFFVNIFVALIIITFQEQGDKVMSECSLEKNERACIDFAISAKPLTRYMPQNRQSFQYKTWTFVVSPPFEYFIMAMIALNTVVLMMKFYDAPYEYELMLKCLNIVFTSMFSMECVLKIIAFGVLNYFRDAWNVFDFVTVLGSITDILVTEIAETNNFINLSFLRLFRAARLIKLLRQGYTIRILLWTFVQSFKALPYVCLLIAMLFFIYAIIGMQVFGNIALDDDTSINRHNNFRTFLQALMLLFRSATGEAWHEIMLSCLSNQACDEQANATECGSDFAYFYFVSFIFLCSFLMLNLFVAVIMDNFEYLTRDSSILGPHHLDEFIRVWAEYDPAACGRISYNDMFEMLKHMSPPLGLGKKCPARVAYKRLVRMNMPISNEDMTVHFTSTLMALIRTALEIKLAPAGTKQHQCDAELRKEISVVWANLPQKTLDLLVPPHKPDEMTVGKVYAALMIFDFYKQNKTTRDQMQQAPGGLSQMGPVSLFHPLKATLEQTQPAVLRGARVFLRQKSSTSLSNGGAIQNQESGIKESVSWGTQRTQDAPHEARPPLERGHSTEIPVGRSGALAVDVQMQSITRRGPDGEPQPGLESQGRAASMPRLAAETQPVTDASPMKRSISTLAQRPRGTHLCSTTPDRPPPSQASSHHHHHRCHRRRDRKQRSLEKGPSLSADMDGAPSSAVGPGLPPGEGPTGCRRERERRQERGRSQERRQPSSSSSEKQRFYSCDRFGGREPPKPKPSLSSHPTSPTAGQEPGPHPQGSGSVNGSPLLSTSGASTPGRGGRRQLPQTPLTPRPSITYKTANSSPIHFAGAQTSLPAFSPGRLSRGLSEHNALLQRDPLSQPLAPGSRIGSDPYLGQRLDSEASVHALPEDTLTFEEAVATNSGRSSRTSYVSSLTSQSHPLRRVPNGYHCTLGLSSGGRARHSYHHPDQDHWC
human Cav2.2, sequence (P54289 25-946 partner limits assumed): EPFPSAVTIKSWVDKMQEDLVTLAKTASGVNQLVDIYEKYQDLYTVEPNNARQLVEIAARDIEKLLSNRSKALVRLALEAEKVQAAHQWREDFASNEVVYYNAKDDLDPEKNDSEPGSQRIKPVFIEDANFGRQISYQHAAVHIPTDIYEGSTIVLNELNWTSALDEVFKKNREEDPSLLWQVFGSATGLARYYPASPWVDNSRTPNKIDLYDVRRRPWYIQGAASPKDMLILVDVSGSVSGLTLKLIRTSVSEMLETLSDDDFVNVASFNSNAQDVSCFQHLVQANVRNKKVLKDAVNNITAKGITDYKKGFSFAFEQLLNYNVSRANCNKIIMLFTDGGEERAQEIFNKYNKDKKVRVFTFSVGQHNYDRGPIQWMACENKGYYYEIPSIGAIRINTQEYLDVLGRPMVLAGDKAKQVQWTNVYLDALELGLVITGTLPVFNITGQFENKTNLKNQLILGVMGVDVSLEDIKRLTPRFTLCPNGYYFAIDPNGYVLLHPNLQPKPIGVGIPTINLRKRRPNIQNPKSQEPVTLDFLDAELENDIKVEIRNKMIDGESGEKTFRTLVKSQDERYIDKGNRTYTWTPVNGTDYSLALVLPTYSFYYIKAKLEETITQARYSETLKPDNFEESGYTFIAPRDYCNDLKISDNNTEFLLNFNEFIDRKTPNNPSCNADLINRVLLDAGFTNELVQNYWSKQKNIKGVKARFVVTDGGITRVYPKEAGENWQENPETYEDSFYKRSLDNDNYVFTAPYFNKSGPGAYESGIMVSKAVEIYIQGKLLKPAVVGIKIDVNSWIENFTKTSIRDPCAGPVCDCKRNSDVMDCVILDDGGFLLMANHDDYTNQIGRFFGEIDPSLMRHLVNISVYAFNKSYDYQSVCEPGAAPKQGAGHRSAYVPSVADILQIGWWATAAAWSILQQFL
human Cav2.2, sequence (P54289 947-1103 partner limits assumed): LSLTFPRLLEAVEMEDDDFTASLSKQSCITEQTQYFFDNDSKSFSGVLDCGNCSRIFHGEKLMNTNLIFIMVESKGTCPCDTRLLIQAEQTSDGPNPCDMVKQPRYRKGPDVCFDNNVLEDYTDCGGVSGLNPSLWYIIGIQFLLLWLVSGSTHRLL
human Cav2.2, sequence (P54284 whole entry partner): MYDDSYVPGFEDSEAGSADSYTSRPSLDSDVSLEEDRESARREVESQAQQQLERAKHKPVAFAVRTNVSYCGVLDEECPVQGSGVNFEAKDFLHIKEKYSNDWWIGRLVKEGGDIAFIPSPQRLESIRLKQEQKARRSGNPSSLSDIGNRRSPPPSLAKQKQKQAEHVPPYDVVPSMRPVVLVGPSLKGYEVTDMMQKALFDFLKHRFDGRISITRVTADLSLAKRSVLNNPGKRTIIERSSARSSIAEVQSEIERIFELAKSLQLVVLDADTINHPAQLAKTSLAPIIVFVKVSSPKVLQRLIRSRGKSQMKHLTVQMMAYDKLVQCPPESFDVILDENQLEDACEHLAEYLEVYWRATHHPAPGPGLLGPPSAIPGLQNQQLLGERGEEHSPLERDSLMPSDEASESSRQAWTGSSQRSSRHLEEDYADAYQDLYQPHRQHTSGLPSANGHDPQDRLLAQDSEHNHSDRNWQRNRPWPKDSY

Row | IC50 [1] | SMILES | other results
1 | 1110 nM | CCC[C@@H](C(=O)N[C@@H]1CC[C@H]2CN(S(=O)(=O)c3ccc(F)cc3)C[C@H]21)N(C)C(=O)OC(C)(C)C [Example 330, tert-butyl(S)-1-((3aS,4R,6aR)-2-(4-fluorophenylsulfonyl)octahydrocyclopenta[c]pyrrol-4-ylamino)-1-oxopentan-2-yl(methyl)carbamate] | –
2 | 4230 nM | CC(C)(C)C[C@H](N)C(=O)N[C@H]1CC[C@@H]2CN(S(=O)(=O)c3ccc(F)cc3)C[C@@H]21 [Example 453, N^1-{(3aR,4S,6aS)-2-[(4-fluorophenyl)sulfonyl]octahydrocyclopenta[c]pyrrol-4-yl}-4-methyl-L-leucinamide] | –
3 | 6860 nM | CN[C@H](C(=O)N[C@@H]1CC[C@H]2CN(S(=O)(=O)c3ccc(F)cc3)C[C@H]21)C(C)C [Example 400, N^1-{(3aS,4R,6aR)-2-[(4-fluorophenyl)sulfonyl]octahydrocyclopenta[c]pyrrol-4-yl}-N^2-methyl-L-valinamide] | –
4 | 1140 nM | CN[C@@H](CC(C)C)C(=O)N1C[C@H]2CC[C@H](N(C(C)C)S(=O)(=O)c3cccc(C(F)(F)F)c3)[C@H]2C1 [Example 557, N-isopropyl-N-[(3aR,4S,6aS)-2-(N-methyl-L-leucyl)octahydrocyclopenta[c]pyrrol-4-yl]-3-(trifluoromethyl)benzenesulfonamide] | –
5 | 2170 nM | CC(C)(C)OC(=O)N[C@H](C(=O)N[C@@H]1CC[C@H]2CN(S(=O)(=O)c3ccc(C(F)(F)F)cc3)C[C@H]21)C(C)(C)C [Example 342, tert-butyl(S)-3,3-dimethyl-1-oxo-1-((3aS,4R,6aR)-2-(4-(trifluoromethyl)phenylsulfonyl)octahydrocyclopenta[c]pyrrol-4-ylamino)butan-2-ylcarbamate] | –
6 | 2600 nM | CC(C)C[C@@H](C(=O)N[C@@H]1CC[C@@H]2CN(S(=O)(=O)c3ccc(C(F)(F)F)cc3)C[C@@H]21)N(C)C(=O)OC(C)(C)C [Example 329, tert-butyl methyl((S)-4-methyl-1-oxo-1-((3aR,4R,6aS)-2-(4-(trifluoromethyl)phenylsulfonyl)octahydrocyclopenta[c]pyrrol-4-ylamino)pentan-2-yl)carbamate] | –
7 | 2700 nM | CC(C)(C)C[C@H](NC1CC1)C(=O)N[C@H]1CC[C@@H]2CN(S(=O)(=O)c3ccc(C(F)(F)F)cc3)C[C@@H]21 [Example 499, N^2-cyclopropyl-4-methyl-N^1-((3aR,4S,6aS)-2-{[4-(trifluoromethyl)phenyl]sulfonyl}octahydrocyclopenta[c]pyrrol-4-yl)-L-leucinamide] | –
8 | 4180 nM | CC(C)(C)CN[C@@H]1CC[C@H]2CN(S(=O)(=O)c3cccc(C(F)(F)F)c3)C[C@H]21 [Example 281, (3aS,4R,6aR)—N-neopentyl-2-{[3-(trifluoromethyl)phenyl]sulfonyl}octahydrocyclopenta[c]pyrrol-4-amine] | –
9 | 5700 nM | CCC[C@H](NC)C(=O)N[C@@H]1CC[C@@H]2CN(S(=O)(=O)c3ccc(C(F)(F)F)cc3)C[C@@H]21 [Example 420, N^2-methyl-N^1-((3aR,4R,6aS)-2-{[4-(trifluoromethyl)phenyl]sulfonyl}octahydrocyclopenta[c]pyrrol-4-yl)-L-norvalinamide] | –

Second part, the molecule before the results:

Row | SMILES | IC50 [1] | other results
10 | CC(C)[C@@H](CC(=O)N[C@H]1CC[C@@H]2CN(S(=O)(=O)c3cccc(C(F)(F)F)c3)C[C@@H]21)NC(=O)OC(C)(C)C [Example 272, tert-butyl(1R)-1-isopropyl-3-oxo-[((3aR,4S,6aS)-2-{[3-(trifluoromethyl)phenyl]sulfonyl}octahydrocyclopenta[c]pyrrol-4-yl)amino]propylcarbamate] | 5140 nM | –
11 | CC(C)C(C(=O)N[C@H]1CC[C@@H]2CN(C)C[C@@H]21)c1ccccc1 (stereo partly drawn) [Example 84, 3-methyl-N-[(3aR,4S,6aS)-2-methyloctahydrocyclopenta[c]pyrrol-4-yl]-2-phenylbutanamide] | – | inhibition at 10 µM: 5.8%
12 | O=C(N[C@H]1CC[C@H]2CN(Cc3cccc(C(F)(F)F)c3)C[C@H]21)C(O)(C1CCCCC1)C1CCCCC1 [Example 152, 2,2-dicyclohexyl-2-hydroxy-N-{(3aS,4S,6aR)-2-[3-(trifluoromethyl)benzyl]octahydrocyclopenta[c]pyrrol-4-yl}acetamide] | 800 nM | –
13 | C[C@H](C(=O)N[C@@H]1CC[C@H]2CN(Cc3ccccc3)C[C@H]21)c1ccccc1 [Example 19, (2S)—N-[(3aS,4R,6aR)-2-benzyloctahydrocyclopenta[c]pyrrol-4-yl]-2-phenylpropanamide] | – | inhibition at 10 µM: 25%
14 | O=C(N[C@H]1CC[C@H]2CN(Cc3cccc(C(F)(F)F)c3)C[C@H]21)C(c1ccccc1)c1ccccc1 (relative stereo) [Example 135, 2,2-diphenyl-N-{(3aS*,4S*,6aR*)-2-[3-(trifluoromethyl)benzyl]octahydrocyclopenta[c]pyrrol-4-yl}acetamide] | 900 nM | –
15 | CC(C)C(C(=O)N[C@H]1CC[C@@H]2CN(Cc3ccc(F)c(C(F)(F)F)c3)C[C@@H]21)c1ccccc1 (stereo partly drawn) [Example 100, N-{(3aR,4S,6aS)-2-[4-fluoro-3-(trifluoromethyl)benzyl]octahydrocyclopenta[c]pyrrol-4-yl}-3-methyl-2-phenylbutanamide] | – | IC50 [2]: 4200 nM
16 | CC(C)C(C(=O)N[C@H]1CC[C@@H]2CN(CCCc3cccc(C(F)(F)F)c3)C[C@@H]21)c1ccccc1 (stereo partly drawn) [Example 111, 3-methyl-2-phenyl-N-((3aR,4S,6aS)-2-{3-[3-(trifluoromethyl)phenyl]propyl}octahydrocyclopenta[c]pyrrol-4-yl)butanamide] | – | IC50 [2]: 2200 nM
17 | CC(C)C(C(=O)N[C@H]1CC[C@@H]2CN(CCc3ccccc3)C[C@@H]21)c1ccccc1 (stereo partly drawn) [Example 104, 3-methyl-2-phenyl-N-[(3aR,4S,6aS)-2-(2-phenylethyl)octahydrocyclopenta[c]pyrrol-4-yl]butanamide] | – | inhibition at 10 µM: 79%
18 | CC(C)C(C(=O)N[C@H]1CC[C@@H]2CN(CCCc3cccc(Cl)c3)C[C@@H]21)c1ccccc1 (stereo partly drawn) [Example 109, N-{(3aR,4S,6aS)-2-[3-(3-chlorophenyl)propyl]octahydrocyclopenta[c]pyrrol-4-yl}-3-methyl-2-phenylbutanamide] | – | IC50 [2]: 9000 nM
19 | O=C(N[C@H]1CC[C@@H]2CN(Cc3ccccc3)C[C@@H]21)C(C1CCCCC1)C1CCCCC1 [Example 40, N-[(3aR,4S,6aS)-2-benzyloctahydrocyclopenta[c]pyrrol-4-yl]-2,2-dicyclohexylacetamide] | – | IC50 [2]: 3600 nM
20 | CC(C)C(C(=O)N[C@H]1CC[C@H]2CN(Cc3cccc(C(F)(F)F)c3)C[C@H]21)c1ccccc1 (relative stereo) [Example 122, 3-methyl-2-phenyl-N-{(3aS*,4S*,6aR*)-2-[3-(trifluoromethyl)benzyl]octahydrocyclopenta[c]pyrrol-4-yl}butanamide] | 600 nM | –
21 | CC(C)(C)C(Cc1ccccc1)C(=O)N[C@H]1CC[C@@H]2CN(Cc3ccccc3)C[C@@H]21 (stereo partly drawn) [Example 49, 2-benzyl-N-[(3aR,4S,6aS)-2-benzyloctahydrocyclopenta[c]pyrrol-4-yl]-3,3-dimethylbutanamide] | – | IC50 [2]: 4600 nM
22 | O=C(N[C@@H]1CC[C@H]2CN(Cc3ccccc3)C[C@H]21)C(C1CCCCC1)C1CCCCC1 [Example 20, N-[(3aS,4R,6aR)-2-benzyloctahydrocyclopenta[c]pyrrol-4-yl]-2,2-dicyclohexylacetamide] | 1800 nM | –
